Results on 16 compounds are retold here after patent publication US8497371B2, “Pipemidic acid derivative autotaxin inhibitors” (University of Memphis Research Foundation, priority 2009, dated 2013).

Bounds are passed on as bounds.

Holding throughout (type): biochemical
Test [1] has as its target ATX (Homo sapiens, UniProt Q13822). Briefly: ATX inhibition assay with FS-3 substrate. Also on record: conditioned serum-free medium (CCM) from MDA-MB-435 cells as the source of ATX; endogenous in cells; host or cells: MDA-MB-435 cells (about 10x concentrated serum-free conditioned medium). The conditions noted are these: for % Response at 10 μM (FS-3): 10 μM compound, FS-3 hydrolysis normalized to vehicle control (low = strong inhibition), mean ± S.D.; for single dose response comparison by aromatic substituent and position: Table 2, same values as % Response at 10 μM.
Procedure: ATX inhibition was assayed using the substrate FS-3 (Echelon Biosciences, Inc., Salt Lake City, Utah, USA). The FS-3 assay used ˜10 times concentrated conditioned serum-free medium (CCM) from MDA-MB-435 cells as the source of ATX, while CCM comprised one-third of the total volume.
All assays were performed in 96-well plates with data read at 1 minute intervals by a Synergy2 system (BioTek, Winooski, Vt.). […] Results are shown at one hour, at which point all fluorescence and absorbance changes as a function of time were linear. All readings were normalized to vehicle control after subtraction of fluorescence in the absence of CCM. Data are shown as the mean±S.D. of at least three wells. All experiments were repeated at least twice and results are shown.

In test [2] the target is T1, human NPP7 (Homo sapiens, UniProt Q6UWV6).
T1 construct: transfected with human NPP6ex^51 or human NPP7ex expression plasmids; made in house; host or cells: HEK293 cells, transient transfection, pcDNA3.1(+); conditioned medium concentrated about 10x (CCM)
T1 sequence (Q6UWV6 22-433 limits assumed): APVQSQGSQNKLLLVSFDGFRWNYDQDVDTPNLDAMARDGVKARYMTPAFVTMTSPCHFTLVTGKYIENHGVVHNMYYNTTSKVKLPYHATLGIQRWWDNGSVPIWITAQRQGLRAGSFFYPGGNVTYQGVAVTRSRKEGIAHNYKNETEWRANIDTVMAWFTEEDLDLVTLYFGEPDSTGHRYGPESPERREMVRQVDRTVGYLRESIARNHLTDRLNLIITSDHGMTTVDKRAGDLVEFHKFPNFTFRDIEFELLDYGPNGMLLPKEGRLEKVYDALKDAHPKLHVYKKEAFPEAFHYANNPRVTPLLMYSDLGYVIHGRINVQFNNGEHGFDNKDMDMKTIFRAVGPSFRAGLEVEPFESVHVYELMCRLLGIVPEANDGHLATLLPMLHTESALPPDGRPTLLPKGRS
Briefly: Determination of NPP7 inhibition (pNPPC substrate). As to conditions: 10 μM inhibitor. On the procedure:
(§1) Inhibitor selectivity was assayed using p-nitrophenylphosphoryl-choline (pNPPC) (Sigma-Aldrich, St. Louis, Mo.) as substrate for NPP6 and NPP7. The final volume (60 μL) included 20 μL (CM, NPP6 or CCM, NPP7, 20 μL inhibitor (10 μM including 1% DMSO) in assay buffer, and 20 μL pNPPC (10 mM, NPP6 or 1 NPP7) in assay buffer. NPP6 assay buffer contained 500 mM NaCl, 0.05% Triton X-100, 100 mM Tris-HCl (pH 9.0), whereas NPP7 assay buffer was comprised of 50 mM Tris HCl, pH 8.5, 150 mM NaCl, and 10 mM taurocholic acid. However, unlike the published methods, EDTA was not added to the NPP7 assay buffer. All assays were performed in 96-well, half area plates (Corning Inc., Lowell, Mass.) at 37° C. with data collected at 2 minute intervals using a Synergy2 absorbance plate reader (BioTek, Winooski, Vt.). Results are shown at the one hour time point, when all absorbance changes as a function of time were linear. Readings were normalized to vehicle control after subtraction of absorbance in the absence of CM or CCM. Data are shown as the mean±S.D. of at least three wells. All experiments were repeated twice and representative results are shown.
(§2) Assays were performed with CM or CCM from HEK293 cells transiently transfected with NPP6 and 7 expression plasmids, respectively. HEK293 cells were seeded in Dulbecco's modified Eagle's medium (DMEM) containing 10% fetal bovine serum, 100 U/ml penicillin, 100 μg/ml streptomycin (Hyclone, Logan, Utah), and 2 mM L-glutamine. HEK293 cells were grown overnight at 37° C. under 5% CO2 to 80% confluence. The cells were then transfected with human NPP6ex^51 or human NPP7ex expression plasmids in the pcDNA3.1(+) mammalian vector in the presence of Polyfect Transfection Reagent (Hyclone, Logan, Utah). Six hours after transfection, the culture medium was changed to serum free DMEM containing L-glutamine and cells were incubated for 48 hours. Expressed protein was collected (NPP6 and NPP7) and concentrated ˜10×(NPP7) using 10 kDa molecular weight cutoff filters (Millipore, Beverly, Mass.) in an Amicon pressure cell (Millipore, Beverly, Mass.).

Test [3] concerns the target T2, human NPP6 (Homo sapiens, UniProt Q6UWR7).
T2 construct: transfected with human NPP6ex^51 or human NPP7ex expression plasmids; made in house; host or cells: HEK293 cells, transient transfection, pcDNA3.1(+); unconcentrated conditioned medium (CM)
T2 sequence (Q6UWR7 23-419 limits assumed): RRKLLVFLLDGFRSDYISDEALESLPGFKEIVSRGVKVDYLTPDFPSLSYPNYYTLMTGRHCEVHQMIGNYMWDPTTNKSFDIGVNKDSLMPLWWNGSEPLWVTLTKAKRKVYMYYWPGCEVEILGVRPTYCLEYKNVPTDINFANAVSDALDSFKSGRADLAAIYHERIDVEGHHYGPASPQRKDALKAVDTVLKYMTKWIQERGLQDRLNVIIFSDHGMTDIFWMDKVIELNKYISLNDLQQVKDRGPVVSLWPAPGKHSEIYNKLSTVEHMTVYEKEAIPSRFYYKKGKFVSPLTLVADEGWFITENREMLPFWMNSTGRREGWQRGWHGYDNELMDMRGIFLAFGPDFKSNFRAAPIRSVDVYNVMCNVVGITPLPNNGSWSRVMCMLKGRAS
Briefly: Determination of NPP6 inhibition (pNPPC substrate). The conditions noted are these: 10 μM inhibitor. On the procedure: as §1, §2

Take “2-(4-{[(4-dimethylaminonapthylphenyl)amino]carbonothioyl}-1-piperazinyl)-8-ethyl-5-oxo-5,8-dihydropyrido[2,3-d]pyrimidine-6-carboxylic acid [Compound 2]”: in test [1], the “% Response at 10 μM (FS-3)” value was found to be 59.9 ± 1.5%.

Take `CCn1cc(C(=O)O)c(=O)c2cnc(N3CCN(C(=S)Nc4ccc(C(=O)O)cc4)CC3)nc21` [Compound 4, 2-(4-{[(4-carboxylphenyl)amino]carbonothioyl}-1-piperazinyl)-8-ethyl-5-oxo-5,8-dihydropyrido[2,3-d]pyrimidine-6-carboxylic acid]: the “% Response at 10 μM (FS-3)” value in test [1] came out at 72.7 ± 2.2%.

On to `CCn1cc(C(=O)O)c(=O)c2cnc(N3CCN(C(=S)Nc4ccccc4C(=O)OC)CC3)nc21` [Compound 5, 2-(4-{[(2-methylesterphenyl)amino]carbonothioyl}-1-piperazinyl)-8-ethyl-5-oxo-5,8-dihydropyrido[2,3-d]pyrimidine-6-carboxylic acid], for which the “% Response at 10 μM (FS-3)” value in test [1] is 51.2 ± 1.3%.

With `CCn1cc(C(=O)O)c(=O)c2cnc(N3CCN(C(=S)Nc4ccc(S(=O)(=O)N5CCOCC5)cc4)CC3)nc21` [Compound 6, 2-(4-{[(4-morpholinosulfonylphenyl)amino]carbonothioyl}-1-piperazinyl)-8-ethyl-5-oxo-5,8-dihydropyrido[2,3-d]pyrimidine-6-carboxylic acid], the “% Response at 10 μM (FS-3)” value in test [1] is given as 64.1 ± 2.8%.

Turning to `CCn1cc(C(=O)O)c(=O)c2cnc(N3CCN(C(=S)Nc4c(C)cc(C)cc4C)CC3)nc21` [Compound 8, 2-(4-{[(2,4,6-mesitylphenyl)amino]carbonothioyl}-1-piperazinyl)-8-ethyl-5-oxo-5,8-dihydropyrido[2,3-d]pyrimidine-6-carboxylic acid], the “% Response at 10 μM (FS-3)” value in test [1] was found to be 53.5 ± 1.6%.

For the compound `CCn1cc(C(=O)O)c(=O)c2cnc(N3CCN(C(=S)Nc4ccc(-n5cccn5)cc4)CC3)nc21` [Compound 9, 2-(4-{[(4-pyrazolephenyl)amino]carbonothioyl}-1-piperazinyl)-8-ethyl-5-oxo-5,8-dihydropyrido[2,3-d]pyrimidine-6-carboxylic acid], the “% Response at 10 μM (FS-3)” value in test [1] is 68.6 ± 1.1%.

As for `CCn1cc(C(=O)O)c(=O)c2cnc(N3CCN(C(=S)Nc4ccccc4-c4cccc5nsnc45)CC3)nc21` [Compound 10, 2-(4-{[(2-benzothiadiazolphenyl)amino]carbonothioyl}-1-piperazinyl)-8-ethyl-5-oxo-5,8-dihydropyrido[2,3-d]pyrimidine-6-carboxylic acid], in test [1], the “% Response at 10 μM (FS-3)” value was 63.2 ± 2.8%.

In the case of `CCn1cc(C(=O)O)c(=O)c2cnc(N3CCN(C(=S)Nc4ccccc4C(F)(F)F)CC3)nc21` [Compound 12, 2-(4-{[(2-trifluoromethylphenyl)amino]carbonothioyl}-1-piperazinyl)-8-ethyl-5-oxo-5,8-dihydropyrido[2,3-d]pyrimidine-6-carboxylic acid], in test [1], the “% Response at 10 μM (FS-3)” value was determined as 100.8 ± 1.9%; the “single dose response comparison by aromatic substituent and position” value (shortened to “single dose response comparison”) is on record as 100.8 ± 1.9.

`CCn1cc(C(=O)O)c(=O)c2cnc(N3CCN(C(=S)Nc4cccc(Cl)c4Cl)CC3)nc21` [Compound 15, 2-(4-{[(2,3-dichlorophenyl)amino]carbonothioyl}-1-piperazinyl)-8-ethyl-5-oxo-5,8-dihydropyrido[2,3-d]pyrimidine-6-carboxylic acid]: the “% Response at 10 μM (FS-3)” value in test [1] is 72.3 ± 0.4%.

As to `CCn1cc(C(=O)Oc2ccccc2)c(=O)c2cnc(N3CCN(C(=S)Nc4ccccc4)CC3)nc21` [Compound 16, 2-(4-{[(phenyl)amino]carbonothioyl}-1-piperazinyl)-8-ethyl-5-oxo-5,8-dihydropyrido[2,3-d]pyrimidine-6-carboxylic acid phenyl], the “% Response at 10 μM (FS-3)” value in test [1] is given as 56.4 ± 1.0%.

Consider `CCn1cc(C(=O)O)c(=O)c2cnc(N3CCN(C(=S)Nc4ccccc4Cl)CC3)nc21` [Compound 17, 2-(4-{[(2-chlorophenyl)amino]carbonothioyl}-1-piperazinyl)-8-ethyl-5-oxo-5,8-dihydropyrido[2,3-d]pyrimidine-6-carboxylic acid], for which, in test [1], the “% Response at 10 μM (FS-3)” value came to 83.5 ± 8.2%; the “single dose response comparison” value turned out to be 83.5 ± 8.2.

For `CCn1cc(C(=O)O)c(=O)c2cnc(N3CCN(C(=S)Nc4cccc(OC)c4)CC3)nc21` [Compound 19, 2-(4-{[(3-methoxyphenyl)amino]carbonothioyl}-1-piperazinyl)-8-ethyl-5-oxo-5,8-dihydropyrido[2,3-d]pyrimidine-6-carboxylic acid], in test [1], the “% Response at 10 μM (FS-3)” value was 40.9 ± 1.3%; the “single dose response comparison” value worked out at 40.9 ± 1.3. Moreover, the 50% inhibitory concentration (IC50) in test [1] (FS-3 substrate) is 17.7 ± 0.3 µM. The inhibition at 10 µM in test [1] (single dose 10 μM, % inhibition, read-out: inhibition of ATX-mediated hydrolysis of FS-3) is no less than 50%. For the same compound, in test [2], the “effect on activity of NPP7” value was “None of the compounds affected the activity”. Also, the “effect on activity of NPP6” value in test [3] is recorded as “None of the compounds affected the activity”.

With `CCn1cc(C(=O)O)c(=O)c2cnc(N3CCN(C(=S)Nc4ccccc4OC)CC3)nc21` [Compound 21, 2-(4-{[(2-methoxyphenyl)amino]carbonothioyl}-1-piperazinyl)-8-ethyl-5-oxo-5,8-dihydropyrido[2,3-d]pyrimidine-6-carboxylic acid], in test [1], the “% Response at 10 μM (FS-3)” value turned out to be 97.6 ± 1.8%; the “single dose response comparison” value was 97.6 ± 1.8.

For the compound `CCn1cc(C(=O)O)c(=O)c2cnc(N3CCN(C(=S)Nc4ccc(OC)cc4)CC3)nc21` [Compound 24, 2-(4-{[(4-methoxyphenyl)amino]carbonothioyl}-1-piperazinyl)-8-ethyl-5-oxo-5,8-dihydropyrido[2,3-d]pyrimidine-6-carboxylic acid], in test [1], the “% Response at 10 μM (FS-3)” value is listed as 79.7 ± 0.9%; the “single dose response comparison” value was determined as 79.7 ± 0.9.

As for `CCn1cc(C(=O)O)c(=O)c2cnc(N3CCN(C(=S)Nc4ccccc4I)CC3)nc21` [Compound 26, 2-(4-{[(2-iodophenyl)amino]carbonothioyl}-1-piperazinyl)-8-ethyl-5-oxo-5,8-dihydropyrido[2,3-d]pyrimidine-6-carboxylic acid], in test [1], the “% Response at 10 μM (FS-3)” value is 68.4 ± 1.3%; the “single dose response comparison” value was determined as 68.4 ± 1.3.

As to `CCn1cc(C(=O)O)c(=O)c2cnc(N3CCN(C(=S)Nc4ccccc4F)CC3)nc21` [Compound 30, 2-(4-{[(2-fluorophenyl)amino]carbonothioyl}-1-piperazinyl)-8-ethyl-5-oxo-5,8-dihydropyrido[2,3-d]pyrimidine-6-carboxylic acid], in test [1], the “% Response at 10 μM (FS-3)” value came to 77.3 ± 1.6%; the “single dose response comparison” value is given as 77.3 ± 1.6.
